test system: BRIN-BD11 cells; assay: Glucose stimulated insulin secretion (HTRF insulin assay); type: cell-based, rat; conditions: below the concentration of 20 μM; 16.7 mM glucose, 20 min
Procedure: The clonal rat pancreatic β-cell line (BRIN-BD11) was grown as a monolayer in culture dishes at 37° C. under 5% CO2/air with 90% humidity. Cells were maintained in RPMI 1640 medium containing 10% foetal bovine serum and 5% penicillin and streptomycin mixture.
BRIN-BD11 cells were plated on 24-well plates (0.5×10^5 cells/well) and incubated for 48 hours with media containing 5.6 mM glucose. Before performing acute insulin secretion test, cells were pre-incubated with 1.1 mM glucose in Krebs-Ringer Bicarbonate Buffer for 45 min at 37° C. Then, cells were challenged with vehicle (DMSO) or various ugonins in 16.7 mM glucose in Krebs-Ringer Bicarbonate Buffer for 20 min. The media were collected for insulin determination. Insulin concentrations were quantified by the Homogeneous Time-Resolved Fluorescence (HTRF) insulin assay and normalized to a million of total cell numbers.
Data were presented as mean±standard error of the mean. Statistical analyses were performed using GraphPad Prism (GraphPad, CA, USA). Single parameter-based comparisons were obtained from the unpaired student's t-test. P values less than 0.05 and 0.01 were considered to be significant.

Row | SMILES | insulin secretion of BRIN-BD11 cells
1 | COc1c(-c2ccc(O)cc2)oc2c3c(cc(O)c2c1=O)OC(C)C3(C)C (stereo not shown) [ugonin C, 5-hydroxy-2-(4-hydroxyphenyl)-3-methoxy-8,9,9-trimethyl-8,9-dihydro-4H-furo[2,3-h]chromen-4-one] | significantly enhance
2 | CC1Oc2cc(O)c3c(=O)c(O)c(-c4ccc(O)cc4)oc3c2C1(C)C (stereo not shown) [ugonin F, 3,5-dihydroxy-2-(4-hydroxyphenyl)-8,9,9-trimethyl-8,9-dihydro-4H-furo[2,3-h]chromen-4-one] | significantly enhance
3 | C=C1CCCC(C)(C)[C@H]1Cc1c(O)cc2oc(-c3ccc(O)c(O)c3)cc(=O)c2c1O [ugonin J, (R)-2-(3,4-dihydroxyphenyl)-6-((2,2-dimethyl-6-methylenecyclohexyl)methyl)-5,7-dihydroxy-4H-chromen-4-one] | significantly enhance
4 | C=C1CCCC(C)(C)[C@H]1Cc1c(OC)cc2oc(-c3ccc(O)c(O)c3)cc(=O)c2c1O [ugonin K, (R)-2-(3,4-dihydroxyphenyl)-6-((2,2-dimethyl-6-methylenecyclohexyl)methyl)-5-hydroxy-7-methoxy-4H-chromen-4-one] | significantly enhance
5 | CC1=CCCC(C)(C)C1Cc1c(O)c(O)cc2oc3c(=O)c4c(O)cc(O)cc4oc3c12 (stereo not shown) [ugonin M, 1,3,7,8-tetrahydroxy-6-((2,6,6-trimethylcyclohex-2-en-1-yl)methyl)-11H-benzofuro[3,2-b]chromen-11-one] | significantly enhance
6 | CC1Oc2cc3oc(-c4ccc(O)c(O)c4)cc(=O)c3c(O)c2C1(C)C (stereo not shown) [ugonin T, 7-(3,4-dihydroxyphenyl)-4-hydroxy-2,3,3-trimethyl-2,3-dihydro-5H-furo[3,2-g]chromen-5-one] | significantly enhance

test system: Akt; assay: Akt kinase activity assay (GSK3-α phosphorylation, Western blotting); type: biochemical; conditions: not given
Procedure: Akt kinase activity was determined by commercial Akt assay kit according to the manufacturer's directions. Phosphorylation states of GSK3-α were determined by Western blotting, so as to evaluate the effect of various ugonins on Akt activity.

Row | SMILES | Akt activity
7 | C=C1CCCC(C)(C)[C@H]1Cc1c(O)cc2oc(-c3ccc(O)c(O)c3)cc(=O)c2c1O [ugonin J, (R)-2-(3,4-dihydroxyphenyl)-6-((2,2-dimethyl-6-methylenecyclohexyl)methyl)-5,7-dihydroxy-4H-chromen-4-one] | promote Akt activity
